From ChEMBL document CHEMBL4742387, “Condensed tricyclic compounds as protein kinase inhibitors” (2018)

Key:
MDA-MB-231 = assay: Antiproliferative activity against human MDA-MB-231 cells assessed as reduction in cell proliferation by CellTiter-Glo luminescent cell viability assay; assay type: functional
MOLM-13 = assay: Antiproliferative activity against human MOLM-13 cells assessed as reduction in cell proliferation by CellTiter-Glo luminescent cell viability assay; assay type: functional
SW-620 = assay: Antiproliferative activity against human SW-620 cells assessed as reduction in cell proliferation by CellTiter-Glo luminescent cell viability assay; assay type: functional
MV4-11 = assay: Antiproliferative activity against human MV4-11 cells assessed as reduction in cell proliferation by CellTiter-Glo luminescent cell viability assay; assay type: functional
[1] = target: Cyclin-C/Cyclin-dependent kinase 19 (Homo sapiens, UniProt Q9BWU1); assay: Inhibition of kinase tracer 236 binding to full-length His-tagged recombinant human CDK19/cyclin C incubated for 60 mins by FRET based LanthaScreen Eu-Kinase binding assay; assay type: protein-complex assay
[2] = target: T1, Serine/threonine-protein kinase haspin (Homo sapiens, UniProt Q8TF76); assay: Inhibition of GST-tagged recombinant human haspin kinase domain incubated for 60 mins by ADP-Glo luminescent kinase assay
T1 sequence (Q8TF76 whole entry): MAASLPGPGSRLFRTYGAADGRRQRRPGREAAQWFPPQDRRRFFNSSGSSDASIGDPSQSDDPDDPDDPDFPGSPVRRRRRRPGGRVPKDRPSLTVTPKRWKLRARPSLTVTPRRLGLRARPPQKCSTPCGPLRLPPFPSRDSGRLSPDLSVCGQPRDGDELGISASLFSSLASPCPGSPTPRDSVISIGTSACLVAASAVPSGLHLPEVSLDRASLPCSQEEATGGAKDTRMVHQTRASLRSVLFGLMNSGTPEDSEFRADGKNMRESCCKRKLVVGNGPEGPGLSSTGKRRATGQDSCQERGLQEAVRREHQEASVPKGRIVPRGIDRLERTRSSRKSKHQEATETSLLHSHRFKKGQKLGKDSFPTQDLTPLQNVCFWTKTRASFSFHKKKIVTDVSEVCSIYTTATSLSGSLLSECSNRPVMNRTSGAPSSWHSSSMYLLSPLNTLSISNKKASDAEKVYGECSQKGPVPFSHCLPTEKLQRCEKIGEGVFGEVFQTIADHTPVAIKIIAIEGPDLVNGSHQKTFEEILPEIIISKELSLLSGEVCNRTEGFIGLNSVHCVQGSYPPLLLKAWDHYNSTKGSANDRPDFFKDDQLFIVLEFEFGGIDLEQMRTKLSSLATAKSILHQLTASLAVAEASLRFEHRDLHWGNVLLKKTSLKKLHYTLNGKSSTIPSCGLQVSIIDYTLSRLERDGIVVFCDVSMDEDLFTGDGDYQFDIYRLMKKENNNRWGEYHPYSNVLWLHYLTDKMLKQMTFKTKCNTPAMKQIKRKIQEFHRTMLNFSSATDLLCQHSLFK

CDK8/Cyclin C = CDK8/Cyclin C (Homo sapiens, UniProt P49336); assay: Inhibition of kinase tracer 236 binding to full-length His-tagged recombinant human CDK8/cyclin C incubated for 60 mins by FRET based LanthaScreen Eu-Kinase binding assay; assay type: protein-complex assay
[3] = target: T2, Serine/threonine-protein kinase haspin (Homo sapiens) (UniProt Q8TF76); assay: Inhibition of haspin in human SW620 cells assessed as reduction in IFNgamma-induced H3T3 phosphorylation pre-incubated for 1 hr before IFNgamma stimulation for 3 hrs by Western blot analysis; assay type: cell-based; conditions: SW-620, time 4.0 hrs
T2 sequence (whole entry): T1 sequence (Q8TF76 whole entry)

[4] = target: T3, Cyclin-dependent kinase 8 (Homo sapiens, UniProt P49336); assay: Inhibition of CDK8 in human SW-620 cells assessed as reduction in STAT1 S727 phosphorylation pre-incubated for 1 hr before IFNgamma stimulation for 3 hrs by Western blot analysis; assay type: cell-based; conditions: time 4.0 hrs
[5] = target: T3, Cyclin-dependent kinase 8; assay: Inhibition of CDK8 in human SW-620 cells assessed as reduction in IFNgamma-induced STAT1 S727 phosphorylation pre-incubated for 1 hr before IFNgamma stimulation for 3 hrs by Western blot analysis; assay type: cell-based; conditions: time 4.0 hrs
[6] = target: T2, Serine/threonine-protein kinase haspin (Homo sapiens); assay: Inhibition of haspin in synchronized human SW620 cells assessed as reduction in IFNgamma-induced H3T3 phosphorylation pre-incubated for 1 hr before IFNgamma stimulation for 3 hrs by Western blot analysis; assay type: cell-based; conditions: SW-620, time 4.0 hrs

Sequence of Cyclin-C/Cyclin-dependent kinase 19 (Q9BWU1 whole entry, the tested form may be a part): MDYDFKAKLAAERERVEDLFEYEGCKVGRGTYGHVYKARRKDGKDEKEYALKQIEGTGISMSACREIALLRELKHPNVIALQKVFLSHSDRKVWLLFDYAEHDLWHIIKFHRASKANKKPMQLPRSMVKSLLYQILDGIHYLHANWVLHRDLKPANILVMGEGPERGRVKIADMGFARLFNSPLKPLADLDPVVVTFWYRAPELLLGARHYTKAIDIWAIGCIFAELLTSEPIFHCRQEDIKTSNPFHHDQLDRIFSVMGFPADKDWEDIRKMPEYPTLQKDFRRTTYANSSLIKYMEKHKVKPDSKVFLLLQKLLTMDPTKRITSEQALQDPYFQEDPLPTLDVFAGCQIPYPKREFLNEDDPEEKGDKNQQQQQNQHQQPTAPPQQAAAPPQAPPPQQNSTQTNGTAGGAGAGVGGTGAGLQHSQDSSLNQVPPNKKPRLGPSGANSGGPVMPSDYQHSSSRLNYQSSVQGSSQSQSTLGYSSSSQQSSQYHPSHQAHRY
Sequence of Cyclin-C/Cyclin-dependent kinase 19 (P24863 whole entry, further chain, the tested form may be a part): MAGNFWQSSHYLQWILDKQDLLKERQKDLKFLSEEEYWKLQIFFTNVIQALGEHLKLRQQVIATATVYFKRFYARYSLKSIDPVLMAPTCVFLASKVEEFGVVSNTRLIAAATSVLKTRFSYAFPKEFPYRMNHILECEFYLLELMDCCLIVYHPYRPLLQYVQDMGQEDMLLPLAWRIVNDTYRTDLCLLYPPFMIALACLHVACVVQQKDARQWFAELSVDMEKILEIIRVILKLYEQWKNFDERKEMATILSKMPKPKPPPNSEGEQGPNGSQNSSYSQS
T3 sequence (P49336 whole entry): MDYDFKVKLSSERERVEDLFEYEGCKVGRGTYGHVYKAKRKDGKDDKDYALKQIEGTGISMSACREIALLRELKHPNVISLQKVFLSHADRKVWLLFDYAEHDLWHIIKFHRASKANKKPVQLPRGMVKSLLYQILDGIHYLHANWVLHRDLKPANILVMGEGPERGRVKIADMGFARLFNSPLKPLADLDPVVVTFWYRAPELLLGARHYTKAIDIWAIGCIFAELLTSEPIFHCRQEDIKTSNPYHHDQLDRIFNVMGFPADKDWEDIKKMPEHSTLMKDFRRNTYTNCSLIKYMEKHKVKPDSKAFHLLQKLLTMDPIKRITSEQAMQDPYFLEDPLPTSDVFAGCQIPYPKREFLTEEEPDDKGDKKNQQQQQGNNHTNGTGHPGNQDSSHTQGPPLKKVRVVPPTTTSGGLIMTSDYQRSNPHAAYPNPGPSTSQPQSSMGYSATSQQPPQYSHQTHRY
Sequence of CDK8/Cyclin C (P49336 whole entry): as above
Sequence of CDK8/Cyclin C (P24863 whole entry, further chain): as the sequence (P24863 whole entry, further chain, the tested form may be a part) above

Row | SMILES | GI50 (MDA-MB-231; Homo sapiens, MDA-MB-231) [nM] | GI50 (MOLM-13; Homo sapiens, MOLM-13) [nM] | GI50 (SW-620; Homo sapiens, SW-620) [nM] | GI50 (MV4-11; Homo sapiens, MV4-11) [nM] | INH [4] [nM] | further results
1 | Cn1c(C(N)=O)cc2c1-c1ccncc1OC21CCOCC1 | 1000 | < 1000 | 1000 | < 1000 |  | 
2 | CCn1c(C(N)=O)cc2c1-c1ccncc1OC2C1CCCCC1 (stereo in doubt; form 1) | 10000 | < 1000 | 10000 | < 1000 |  | IC50 [1]: 1.41 nM; IC50 [2]: 95.2 nM; IC50 (CDK8/Cyclin C): 0.407 nM
3 | CCn1c(C(N)=O)cc2c1-c1ccncc1OC21CCCCC1 [listing 1 of 3 here] |  |  |  |  |  | IC50 (CDK8/Cyclin C): 301 nM
4 | CCn1c(C(N)=O)c(Cl)c2c1-c1ccncc1OC21CCCCC1 |  |  |  |  |  | IC50 (CDK8/Cyclin C): < 1.41 nM
5 | CCn1c(C(N)=O)cc2c1-c1ccncc1OC21CCOCC1 | 1000 | < 1000 | 1000 | < 1000 | < 500 | INH [3]: < 500 nM
6 | CCn1c(C(N)=O)cc2c1-c1ccncc1OC2C1CCOCC1 (stereo unspecified) |  |  |  |  |  | IC50 [2]: 355 nM; IC50 (CDK8/Cyclin C): < 1.41 nM
7 | COCCn1c(C(N)=O)cc2c1-c1ccncc1OC21CCOCC1 | 10000 | 10000 | 10000 | 1000 |  | 
8 | NC(=O)c1cc2c([nH]1)-c1ccncc1OC21CCN(CCc2ccccc2)CC1 | 1000 | < 1000 | 1000 | < 1000 |  | 
9 | CCn1c(C(N)=O)cc2c1-c1ccncc1OC21CCCCC1 [listing 2 of 3 here] |  |  |  |  | < 500 | INH [3]: < 500 nM
10 | Cn1c(C(N)=O)cc2c1-c1ccncc1OC21CCCCC1 | 1000 | < 1000 | 1000 | < 1000 | < 500 | 
11 | CC1(C)Oc2cncc(Cl)c2-c2[nH]c(C(N)=O)cc21 |  |  |  | < 1000 |  | 
12 | NC(=O)c1cc2c([nH]1)-c1ccncc1OC2C1CCOCC1 (stereo in doubt; form 2) [listing 1 of 2 here] |  |  |  |  |  | INH [5]: < 500 nM; INH [6]: 500 nM
13 | NC(=O)c1cc2c([nH]1)-c1ccncc1OC2C1CCOCC1 (stereo in doubt; form 2) [listing 2 of 2 here] |  |  |  |  |  | GI50 (MDA-MB-231): 10000 nM; IC50 [1]: 14.2 nM; GI50 (SW-620): 10000 nM; IC50 [2]: 406 nM; IC50 (CDK8/Cyclin C): 4.46 nM; GI50 (MV4-11): 1000 nM
14 | CC1(C)Oc2cnccc2-c2c1cc(C(N)=O)n2CCF | 1000 | < 1000 | 1000 | < 1000 | < 500 | INH [5]: < 500 nM; INH [3]: < 500 nM; INH [6]: < 500 nM
15 | COc1ccc(S(=O)(=O)Nc2cccnc2Nc2ccc(O)cc2)cc1 [ABT-751] |  |  | 500 |  |  | 
16 | NC(=O)c1cc2c([nH]1)-c1ccncc1OC21CCN(CC(F)(F)F)CC1 | 10000 | 1000 | 10000 | 1000 |  | 
17 | CC1(C)Oc2cnccc2-c2[nH]c(C(N)=O)cc21 | 10000 |  |  | 1000 |  | 

Row | SMILES | GI50 (MDA-MB-231; Homo sapiens, MDA-MB-231) [nM] | GI50 (MOLM-13; Homo sapiens, MOLM-13) [nM] | GI50 (SW-620; Homo sapiens, SW-620) [nM] | GI50 (MV4-11; Homo sapiens, MV4-11) [nM] | INH [4] [nM] | further results
18 | NC(=O)c1cc2c([nH]1)-c1ccncc1OC21CCC1 | 1000 | < 1000 | 10000 | < 1000 | < 500 | 
19 | NC(=O)c1cc2c(n1CCF)-c1ccncc1OC21CCCCC1 | 1000 | < 1000 | 1000 | < 1000 | < 500 | INH [3]: < 500 nM
20 | CCn1c(C(N)=O)c(-c2cccc(OC)c2)c2c1-c1ccncc1OC2(C)C | 10000 | 1000 | 10000 | < 1000 |  | 
21 | NC(=O)c1cc2c([nH]1)-c1ccncc1O[C@H]2C1CCCCC1 | 10000 | 1000 | 1000 | < 1000 | < 500 | IC50 [1]: 7.14 nM; INH [5]: < 500 nM; INH [3]: < 500 nM; INH [6]: < 500 nM; IC50 (CDK8/Cyclin C): 8.5 nM
22 | NC(=O)c1cc2c(n1CCF)-c1ccncc1OC21CCOCC1 |  |  |  |  |  | IC50 (CDK8/Cyclin C): < 1.41 nM
23 | CCn1c(C(N)=O)c(-c2ccccc2OC)c2c1-c1ccncc1OC2(C)C | 10000 | < 1000 | 10000 | < 1000 | < 500 | INH [5]: < 500 nM; INH [3]: < 500 nM; INH [6]: < 500 nM
24 | CCn1c(C(N)=O)cc2c1-c1ccncc1OC2C1CCCCC1 (stereo in doubt; form 2) [listing 1 of 2 here] |  |  |  |  | < 500 | INH [3]: < 500 nM
25 | NC(=O)c1cc2c(n1CCF)-c1ccncc1OC21CCC1 | 1000 | < 1000 | 1000 | < 1000 | < 500 | 
26 | NC(=O)c1cc2c([nH]1)-c1ccncc1OC2C1CCOCC1 (stereo in doubt; form 1) [listing 1 of 2 here] |  |  |  |  |  | INH [5]: 500 nM; INH [6]: 500 nM
27 | CC1(C)Oc2cnccc2-c2[nH]c(C(N)=O)c(C3CC3)c21 | 1000 | 1000 | 1000 | < 1000 | < 500 | 
28 | CCn1c(C(N)=O)cc2c1-c1ccncc1OC21CCCCC1 [listing 3 of 3 here] | 1000 | < 1000 | 1000 | < 1000 |  | 
29 | NC(=O)c1cc2c([nH]1)-c1ccncc1OC2C1CCOCC1 (stereo in doubt; form 1) [listing 2 of 2 here] |  | 1000 |  | < 1000 |  | GI50 (MDA-MB-231): 1000 nM; GI50 (SW-620): 1000 nM; IC50 [2]: 5760 nM; IC50 (CDK8/Cyclin C): 281 nM
30 | NC(=O)c1cc2c([nH]1)-c1ccncc1OC2C1CCCCC1 (stereo unspecified) | 1000 | < 1000 | < 1000 | < 1000 |  | IC50 [1]: 87.3 nM; INH [5]: < 500 nM; INH [6]: 500 nM; IC50 (CDK8/Cyclin C): 19.3 nM
31 | Cn1c(C(N)=O)cc2c1-c1ccncc1OC2(C)C | 1000 | 1000 | 10000 | < 1000 |  | 
32 | COCCn1c(C(N)=O)cc2c1-c1ccncc1OC2(C)C |  |  |  |  |  | INH [5]: < 500 nM; INH [6]: < 500 nM
33 | CCn1c(C(N)=O)cc2c1-c1ccncc1OC21CCN(CC(F)(F)F)CC1 | 1000 | < 1000 | 1000 | < 1000 | < 500 | INH [3]: < 500 nM
34 | CCn1c(C(N)=O)cc2c1-c1ccncc1OC2C1CCCCC1 (stereo in doubt; form 2) [listing 2 of 2 here] |  |  |  |  |  | GI50 (MOLM-13): 1000 nM; IC50 [2]: 522 nM; IC50 (CDK8/Cyclin C): 1.36 nM
